Earlier results on four molecules are cited in patent publication US20110250260A1, “INHIBITION OF BRAIN ENZYMES INOLVED IN CEREBRAL AMYLOID ANGIOPATHY AND MACULAR DEGENERATION” (Loma Linda University Medical Center, priority 2006, published 2011).

One series has as its system Heme oxidase. The conditions noted are these: experimental brain hematomas.
Series [1] has as its system liver function during hepatitis C virus infection. The conditions noted are these: human trials.
In series [2] the test system is heart failure in a murine model.
The test system of series [3] is cell death after ischemia in multiple tissues. The conditions noted are these: animal models.

Where a SMILES comes first, the peptide text is derived from it. The star is where a group is joined. Cbz = O=C(OCc1ccccc1)*; CH2F = FC*

Regarding tin-mesoporphyrin, the “effects to the brain of heme oxidase inhibition” value in the series on Heme oxidase is “beneficial effects to the brain”.

In the case of `C[C@H](NC(=O)C(=O)Nc1ccccc1C(C)(C)C)C(=O)N[C@@H](CC(=O)O)C(=O)COc1c(F)c(F)cc(F)c1F` [IDN-6556], in series [1], the preserving liver function entry is “showing promise” and the side-effects entry was “without exhibiting serious side-effects”.

On to `Cc1c(C(=O)N[C@H](C(=O)NC(CC(=O)O)C(=O)CF)C(C)C)n(C)c2ccccc12` (stereo partly shown) [IDN-1965], for which the mortality entry in series [2] (compared with vehicle-treated mice) is “eliminate the 30% mortality”. For the same molecule, in series [2] (continuous infusion), the “reduction of caspase 3-like activity” value is 90% and the “reduction of terminal dUTP nick end-labeling-positive myocytes” value was 90%.

For the molecule `COC(=O)C[C@H](NC(=O)[C@H](C)NC(=O)[C@@H](NC(=O)OCc1ccccc1)C(C)C)C(=O)CF` [zVAD-FMK] (Cbz-Val-Ala-Asp(OMe)-CH2F), in series [3], the “reducing cell death after ischemia” value is “highly effective”.
